Target: CYP2D6 (Homo sapiens, UniProt P10635)
Test: Inhibition of human recombinant CYP2D6 at 5 uM assessed as blockade of O-demethylation of dextromethorphan in to dextrophan by nanoscale automated in-capillary assay
Assay type: ADME
Details: recombinant CYP2D6, probe dextromethorphan (O-demethylation to dextrorphan)

Chain of CYP2D6 (P10635 whole entry): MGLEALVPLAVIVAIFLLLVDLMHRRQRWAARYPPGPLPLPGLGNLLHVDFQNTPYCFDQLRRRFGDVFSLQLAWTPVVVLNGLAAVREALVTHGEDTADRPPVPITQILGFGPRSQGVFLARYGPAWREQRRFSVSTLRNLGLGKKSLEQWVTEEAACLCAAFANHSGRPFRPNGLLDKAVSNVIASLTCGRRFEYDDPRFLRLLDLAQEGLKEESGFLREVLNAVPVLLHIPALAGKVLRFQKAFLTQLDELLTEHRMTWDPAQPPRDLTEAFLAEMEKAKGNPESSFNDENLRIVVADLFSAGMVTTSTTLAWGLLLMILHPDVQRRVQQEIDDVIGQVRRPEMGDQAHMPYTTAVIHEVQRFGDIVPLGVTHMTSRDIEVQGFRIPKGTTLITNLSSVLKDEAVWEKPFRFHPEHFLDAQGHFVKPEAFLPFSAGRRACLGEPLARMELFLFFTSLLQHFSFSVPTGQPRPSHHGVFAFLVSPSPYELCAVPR

Structure (SMILES) | inhibition at 5 µM [%]
CNCCC(Oc1ccc(C(F)(F)F)cc1)c1ccccc1 (configuration not stated) [FLUOXETINE] | 20
COc1ccc(C(CN(C)C)C2(O)CCCCC2)cc1 (configuration not stated) [VENLAFAXINE] | 0

Source: ChEMBL document CHEMBL1153443, “Development of an in-capillary approach to nanoscale automated in vitro cytochromes p450 assays” (J Med Chem, 2009)
